Data from PubChem BioAssay (NCI).
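Compound exposure: 48 hours, 5 concentrations, 96-well plates. Abbreviation: GI50, concentration required for 50% inhibition of growth. TGI is the concentration that stops growth completely.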

Key:
Assay in all cases: NCI-60 cell line screen, 48 h
[1] = system: HCT-116 colon
[2] = system: A549 NSCLC
[3] = system: A498 renal
[4] = system: RXF 393 renal
[5] = system: MOLT-4 leukemia
[6] = system: SN12C renal
[7] = system: MCF7 breast
[8] = system: M14 melanoma
[9] = system: SK-MEL-28 melanoma
[10] = system: EKVX NSCLC

SMILES | GI50 [1] [µM] | TGI [1] [µM] | GI50 [2] [nM] | TGI [2] [µM] | GI50 [3] [µM] | TGI [3] [µM] | GI50 [4] [µM] | TGI [4] [µM] | GI50 [5] [µM] | TGI [5] [µM] | GI50 [6] [µM] | TGI [6] [µM] | GI50 [7] [nM] | TGI [7] [µM] | GI50 [8] [µM] | TGI [8] [µM] | GI50 [9] [µM] | TGI [9] [µM] | GI50 [10] [µM] | TGI [10] [µM]
O=c1c(I)c[nH]cc1I | > 100 | > 100 | > 100000 | > 100 | > 100 | > 100 | > 100 | > 100 | > 100 | > 100 | > 100 | > 100 | > 100000 | > 100 | > 100 | > 100 | > 100 | > 100 | > 100 | > 100
O=[N+]([O-])c1cccc(/C=N/Nc2ccc3ccccc3n2)c1O |  | 4.77 |  | > 70.8 |  | > 66.9 |  | 17.4 |  | 10.7 |  | 16.1 |  | 11.4 |  | 5.32 |  | > 65.6 |  | 39.1
Cn1c(=O)c(-c2ccccc2Cl)cc2cnc(NC3CCOCC3)nc21 | 8.05 | > 25 | 18200 | > 25 | 3.34 | 15.5 | 5.19 | > 23.9 | 10.2 | > 25 | 8.05 | > 25 | > 25000 | > 25 | 5.66 | > 25 | 10.7 | > 25 |  | 
COc1ccc2nc3ccccc3c(NCCNCCO)c2c1 | 0.352 | 4.84 | 673 | 7.81 | 0.431 | 1.71 | 0.763 | 2.34 | 0.393 | 3.77 | 0.533 | 7.7 | 363 | 7.33 | 0.709 | 2.24 | 1.19 | 3.08 | 1.43 | 7.32
CCCCNc1ncnc2c1cnn2-c1ccccc1 | 1.32 | > 100 | 5290 | > 92.8 | 4.32 | > 100 | 1.97 | 8.26 | 3.75 | > 100 | 6.18 | > 100 | 2110 | > 100 | 1.42 | > 45.8 | 10.1 | > 100 | 7.72 | > 86.6
CC(C)(Oc1ccc(-c2cccc3ccccc23)cc1)C(=O)O |  | > 100 |  | > 100 |  | > 100 |  | > 100 |  | > 100 |  | > 100 |  | > 100 |  | > 100 |  | > 100 |  | > 100
[O]=[Sn]([CH]1CCCCC1)[CH]1CCCCC1 | 0.152 | 0.32 | 1400 | 2.89 | 0.167 | 0.451 | 0.0962 | 0.241 | 0.273 |  | 0.315 | 1.23 | 84.9 |  | 0.239 | 0.677 | 0.279 | 1.14 | 0.225 | 1.2
Nc1ncn([C@H]2CC(O)[C@@H](CO)S2)c(=O)n1 (some centres undefined) | 0.371 | > 100 | 2790 | > 100 | 1.99 | 58.1 | 11.1 | > 100 | 1.08 | > 100 | 3.6 | > 100 | 382 | > 100 | 2.62 | > 100 | 2.05 | > 100 | 32.8 | > 100
CN1CCCCC1CCN1c2ccccc2Sc2ccc(Br)cc21 (centres undefined) | 1.88 | 3.67 | 2710 | 8.19 | 2.21 | 7.08 | 2.18 | 6.46 | 2.83 | 7.83 | 3.23 | 11.9 | 2060 | 4.27 | 1.83 | 3.34 | 2.04 | 4.37 |  | 
CC1(C)CC(O)CC(C)(C)N1O |  | > 100 |  | > 100 |  | > 100 |  | > 100 |  | > 100 |  | > 100 |  | > 100 |  | > 100 |  | > 100 |  | > 100
Cc1ccc(-c2nc(NCCOCCOCCN)nc(N3CCN(c4ccccn4)CC3)n2)cc1 | 10 | 27.8 | 17100 | 36.3 | 5.94 | 21.7 | 13 | 28.2 | 15.8 | 36 | 14 | 29.5 | 12700 | 26.9 | 5.52 | 11.9 | 6.04 | 12.4 | 15.8 | 33
CC(C)=C[C@@H]1C[C@H](C)[C@H]2CC[C@H](C)c3c(O)c(OC4OC(C)C(O)C(O)C4O)c(C)c1c32 (some centres undefined) | 10.9 | 22.9 | 11900 | 24.2 | 12.7 | 26.7 | 11 | 23.2 | 8.35 | 23.9 | 11.3 | 23.5 | 13900 | 27.7 | 11.5 | 24.9 | 18.1 | 32.1 | 19.3 | 34.2
Nc1nc(SCc2ccccc2CCl)c2[nH]cnc2n1 | 16.2 | 33.8 |  |  | 11.7 | 25.8 | 14 | 28.7 | 21.4 | > 100 | 21.2 | 71.7 | 12200 | 28.4 | 17.8 | 52.8 | 17.7 | 49.7 | 12.9 | 25.9
N=C(N)c1ccc2oc3ccc(C(=N)N)cc3c(=O)c2c1 |  | > 100 |  | > 100 |  | > 100 |  | > 100 |  | > 100 |  | > 100 |  | > 100 |  | > 100 |  | > 100 |  | 
CCn1cc(C(=O)O)c(=O)c2cc(F)c(N3CCN(S(=O)(=O)c4ccc(Cl)cc4Cl)CC3)cc21 | 3.56 | > 100 | 2890 | > 100 | 3 | 30 | 2.08 | 5.68 | 3.55 | > 100 | 2.77 | > 100 | 2950 | 15.2 | 3.24 | 10.8 | 3.22 | 13.7 |  | 
